From article PMC4710522, “A Novel Triazolopyridine-Based Spleen Tyrosine Kinase Inhibitor That Arrests Joint Inflammation” (PLoS ONE, 2016)
“And” between values parts separate entries of the source, which are not always exact repeats. Equal entries are not always repeated. Where two headings read alike, the source gives them in different places.

Key:
[1] = tested on: panel of 256 kinases; test: commercial panel of 256 kinases (SelectScreen), overall kinome selectivity; type: biochemical; settings: for number of kinases inhibited by >80% of 256 kinases: 3 μM
Procedure: (§1) Syk kinase mode of inhibition studies, including parameters described in Fig 1, were conducted on the LC3000 platform by Caliper Life Sciences (Hopkinton, MA) according to standard protocols developed by the supplier. […] Non-kinase enzyme assays and GPCR, ion channel, and transporter binding assays were run by CEREP (France). Non-GLP manual patch clamp hERG assays were run by ChanTest (Cleveland, Ohio). Vivid® Assay kits (Life Technologies) were used to measure the cytochrome P450 inhibition of the compound against CYP3A, CYP2C9, CYP2C19, CYP2D6, and CYP1A2, as described.
(§2) Kinase activity was measured using either the Z’-Lyte® or the Adapta® protocols as part of the SelectScreen™ profiling service offered at Life Technologies (Grand Island, NY). For the single point measurements (Part A), CC-509 was kept constant at 3 µM while ATP concentrations [ATP] used were at the KM for ATP (KM ATP) for that specific enyzme, at 10 or 100 µM ATP (10 ATP or 100 ATP, respectively), as indicated. Values expressed as percent control (% control) relative to DMSO-only wells (uninhibited, 100%).
(§3) Kinase activity was measured using either the Z’-Lyte® or the Adapta® protocols as part of the SelectScreen™ profiling service offered at Life Technologies (Grand Island, NY). […] Values expressed as percent control (% control) relative to DMSO-only wells (uninhibited, 100%).

[2] = tested on: primary human eosinophils; test: primary human eosinophils, IL-3 stimulated MCP-1 secretion; type: cell-based
Procedure: Cells were purified from EDTA-treated human whole blood using Polymorphprep (VWR, Radnor, PA) according to the protocol provided by the supplier. Eosinophils were further purified using an Eosinophil Kit (Miltenyi, Auburn, CA) according to manufacturer’s instructions. Neutrophil and eosinophil cell pellets were incubated in phenol red-free RPMI (Life Technologies, Grand Island, NY) for 30 minutes, washed in Kreb’s Ringer buffer, and plated in 96-well white opaque plates (Perkin Elmer, Foster City, CA) for luminescence. Neutrophils were diluted with Kreb’s Ringer buffer containing luminol (200 μM final concentration, Sigma Chemicals, St. Louis, MO) and preincubated with CC-509 for 30 minutes at 37°C. Neutrophils were activated with 0.5 mg/mL final concentration of opsonized zymosan, incubated for 30 minutes at room temperature in the dark, and then read on an Envision 2104 Multilabel Reader (Perkin Elmer, Foster City, CA). Opsonized zymosan was prepared as follows: Zymosan A (Sigma Aldrich, St. Louis, MO) was boiled, washed, and resuspended to a final concentration of 20mg/ml in 150mM NaCl. […] For eosinophils, cells were stimulated with IL-3 (200 pM, R&D Systems, Minneapolis, MN) for 24 hours at which point supernatants were collected and assessed for MCP-1 (Mesoscale).

[3] = target: T1, MAPKAP-K3_h (Homo sapiens, UniProt Q16644); test: SelectScreen kinase assay; type: biochemical; settings: KM ATP
T1 construct: purchased Life Technologies (Invitrogen) SelectScreen, Z'-LYTE / Adapta
T1 sequence (Q16644 whole entry): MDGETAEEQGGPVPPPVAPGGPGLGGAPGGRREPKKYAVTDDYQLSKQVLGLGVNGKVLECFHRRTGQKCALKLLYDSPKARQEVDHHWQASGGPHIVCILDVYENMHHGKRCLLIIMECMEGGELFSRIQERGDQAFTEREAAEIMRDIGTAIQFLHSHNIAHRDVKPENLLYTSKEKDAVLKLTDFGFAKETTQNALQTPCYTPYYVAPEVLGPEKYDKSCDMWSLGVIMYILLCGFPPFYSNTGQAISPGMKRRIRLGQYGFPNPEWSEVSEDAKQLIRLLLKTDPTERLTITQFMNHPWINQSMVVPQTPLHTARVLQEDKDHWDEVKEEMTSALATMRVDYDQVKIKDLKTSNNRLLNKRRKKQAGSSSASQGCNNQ
Procedure: as §1, §2, §3

[4] = target: T2, SGK2_h (Homo sapiens, UniProt Q9HBY8); test: SelectScreen kinase assay; type: biochemical; settings: KM ATP
T2 construct: purchased Life Technologies (Invitrogen) SelectScreen, Z'-LYTE / Adapta
Procedure: as §1, §2, §3

[5] = target: T3, PASK_h (Homo sapiens, UniProt Q96RG2); test: SelectScreen kinase assay; type: biochemical; settings: KM ATP
T3 construct: purchased Life Technologies (Invitrogen) SelectScreen, Z'-LYTE / Adapta
T3 sequence (Q96RG2 whole entry): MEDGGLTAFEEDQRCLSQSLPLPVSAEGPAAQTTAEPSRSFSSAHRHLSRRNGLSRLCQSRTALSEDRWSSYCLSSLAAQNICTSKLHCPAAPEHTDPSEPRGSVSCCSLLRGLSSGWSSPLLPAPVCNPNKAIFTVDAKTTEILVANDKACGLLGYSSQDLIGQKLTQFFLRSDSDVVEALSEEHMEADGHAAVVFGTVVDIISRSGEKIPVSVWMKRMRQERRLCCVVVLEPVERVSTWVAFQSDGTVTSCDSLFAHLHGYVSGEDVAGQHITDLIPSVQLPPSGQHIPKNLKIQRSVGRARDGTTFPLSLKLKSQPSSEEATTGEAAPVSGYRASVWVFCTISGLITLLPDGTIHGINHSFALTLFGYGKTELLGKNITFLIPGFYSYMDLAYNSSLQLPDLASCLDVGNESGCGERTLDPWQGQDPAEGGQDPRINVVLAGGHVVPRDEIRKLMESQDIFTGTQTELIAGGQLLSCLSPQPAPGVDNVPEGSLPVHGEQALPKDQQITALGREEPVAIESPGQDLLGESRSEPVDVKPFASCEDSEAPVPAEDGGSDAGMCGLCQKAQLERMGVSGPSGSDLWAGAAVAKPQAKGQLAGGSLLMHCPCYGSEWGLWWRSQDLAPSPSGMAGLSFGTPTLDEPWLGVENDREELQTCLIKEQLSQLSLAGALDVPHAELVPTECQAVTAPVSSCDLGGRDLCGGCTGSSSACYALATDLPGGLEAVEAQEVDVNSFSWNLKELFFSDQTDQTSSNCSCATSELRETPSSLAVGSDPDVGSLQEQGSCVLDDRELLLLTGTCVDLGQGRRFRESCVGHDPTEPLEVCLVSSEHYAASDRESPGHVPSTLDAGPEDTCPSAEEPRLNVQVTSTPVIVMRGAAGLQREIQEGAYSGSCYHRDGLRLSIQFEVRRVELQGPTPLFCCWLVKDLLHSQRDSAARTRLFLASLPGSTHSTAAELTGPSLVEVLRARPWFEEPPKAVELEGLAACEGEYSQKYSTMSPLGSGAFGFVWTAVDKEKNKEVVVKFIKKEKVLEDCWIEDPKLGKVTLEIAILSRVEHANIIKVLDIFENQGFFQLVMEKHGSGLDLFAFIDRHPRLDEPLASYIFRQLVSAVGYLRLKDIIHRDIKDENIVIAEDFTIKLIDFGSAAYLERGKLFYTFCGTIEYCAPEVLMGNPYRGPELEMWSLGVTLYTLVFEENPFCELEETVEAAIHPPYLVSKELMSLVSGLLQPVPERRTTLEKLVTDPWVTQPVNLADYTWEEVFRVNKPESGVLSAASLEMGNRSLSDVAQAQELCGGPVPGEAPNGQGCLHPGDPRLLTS
Procedure: as §1, §2, §3

[6] = target: T4, Blk_m (Mus musculus, UniProt P16277); test: SelectScreen kinase assay; type: biochemical; settings: KM ATP
T4 construct: purchased Life Technologies (Invitrogen) SelectScreen, Z'-LYTE / Adapta
Procedure: as §1, §2, §3

[7] = target: T5, GRK2_h (Homo sapiens, UniProt P25098); test: SelectScreen kinase assay; type: biochemical; settings: KM ATP
T5 construct: purchased Life Technologies (Invitrogen) SelectScreen, Z'-LYTE / Adapta
Procedure: as §1, §2, §3

[8] = target: T6, GRK6_h (Homo sapiens, UniProt P43250); test: SelectScreen kinase assay; type: biochemical; settings: KM ATP
T6 construct: purchased Life Technologies (Invitrogen) SelectScreen, Z'-LYTE / Adapta
T6 sequence (P43250 whole entry): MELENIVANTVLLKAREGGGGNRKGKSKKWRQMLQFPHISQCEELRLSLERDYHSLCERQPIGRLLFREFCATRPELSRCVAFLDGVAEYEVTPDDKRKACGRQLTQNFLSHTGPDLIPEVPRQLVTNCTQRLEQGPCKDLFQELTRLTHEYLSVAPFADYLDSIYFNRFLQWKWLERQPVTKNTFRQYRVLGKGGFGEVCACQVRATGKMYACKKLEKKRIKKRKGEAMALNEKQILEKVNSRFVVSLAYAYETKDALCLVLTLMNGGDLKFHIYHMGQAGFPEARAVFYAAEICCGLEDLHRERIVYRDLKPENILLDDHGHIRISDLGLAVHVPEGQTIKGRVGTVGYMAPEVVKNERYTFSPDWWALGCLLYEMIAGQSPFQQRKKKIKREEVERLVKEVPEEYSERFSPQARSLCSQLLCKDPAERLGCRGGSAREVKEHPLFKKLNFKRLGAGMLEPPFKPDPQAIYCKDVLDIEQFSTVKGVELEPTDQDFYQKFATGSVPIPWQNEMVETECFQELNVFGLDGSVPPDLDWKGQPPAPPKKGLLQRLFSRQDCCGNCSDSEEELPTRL
Procedure: as §1, §2, §3

[9] = target: T7, DYRK3_h (Homo sapiens, UniProt O43781); test: SelectScreen kinase assay; type: biochemical; settings: KM ATP
T7 construct: purchased Life Technologies (Invitrogen) SelectScreen, Z'-LYTE / Adapta
Procedure: as §1, §2, §3

[10] = target: T8, EEF2K_h (Homo sapiens, UniProt O00418); test: SelectScreen kinase assay; type: biochemical; settings: KM ATP
T8 construct: purchased Life Technologies (Invitrogen) SelectScreen, Z'-LYTE / Adapta
Procedure: as §1, §2, §3

[11] = target: T9, PKC-betaII_h (Homo sapiens, UniProt P05771); test: SelectScreen kinase assay; type: biochemical; settings: KM ATP
T9 construct: purchased Life Technologies (Invitrogen) SelectScreen, Z'-LYTE / Adapta
Procedure: as §1, §2, §3

[12] = target: T10, GRK3_h (Homo sapiens, UniProt P35626); test: SelectScreen kinase assay; type: biochemical; settings: KM ATP
T10 construct: purchased Life Technologies (Invitrogen) SelectScreen, Z'-LYTE / Adapta
Procedure: as §1, §2, §3

[13] = target: T11, PKC-zeta_h (Homo sapiens, UniProt Q05513); test: SelectScreen kinase assay; type: biochemical; settings: KM ATP
T11 construct: purchased Life Technologies (Invitrogen) SelectScreen, Z'-LYTE / Adapta
T11 sequence (Q05513 whole entry): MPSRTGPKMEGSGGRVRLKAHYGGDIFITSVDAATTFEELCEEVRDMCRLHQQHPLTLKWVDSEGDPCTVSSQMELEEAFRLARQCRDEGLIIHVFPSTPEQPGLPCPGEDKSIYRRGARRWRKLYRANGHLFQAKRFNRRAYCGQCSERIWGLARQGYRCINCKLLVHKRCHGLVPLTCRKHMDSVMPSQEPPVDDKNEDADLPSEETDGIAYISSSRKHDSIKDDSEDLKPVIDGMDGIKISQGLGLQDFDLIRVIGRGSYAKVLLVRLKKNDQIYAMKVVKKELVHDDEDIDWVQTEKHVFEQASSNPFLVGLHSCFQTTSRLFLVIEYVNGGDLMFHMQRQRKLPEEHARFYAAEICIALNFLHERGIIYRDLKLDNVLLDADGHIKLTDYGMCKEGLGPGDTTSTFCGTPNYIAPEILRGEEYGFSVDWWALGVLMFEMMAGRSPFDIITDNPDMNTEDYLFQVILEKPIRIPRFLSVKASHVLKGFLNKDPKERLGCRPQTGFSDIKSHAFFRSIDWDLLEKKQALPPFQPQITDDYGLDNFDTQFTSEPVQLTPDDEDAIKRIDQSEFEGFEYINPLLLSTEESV
Procedure: as §1, §2, §3

[14] = target: T12, GSG2 _h (Homo sapiens, UniProt Q8TF76); test: SelectScreen kinase assay; type: biochemical; settings: KM ATP
T12 construct: purchased Life Technologies (Invitrogen) SelectScreen, Z'-LYTE / Adapta
Procedure: as §1, §2, §3

[15] = target: T13, Arg_m (Mus musculus, UniProt Q4JIM5); test: SelectScreen kinase assay; type: biochemical; settings: KM ATP
T13 construct: purchased Life Technologies (Invitrogen) SelectScreen, Z'-LYTE / Adapta
Procedure: as §1, §2, §3

[16] = target: T14, GRK5_h (Homo sapiens, UniProt P34947); test: SelectScreen kinase assay; type: biochemical; settings: KM ATP
T14 construct: purchased Life Technologies (Invitrogen) SelectScreen, Z'-LYTE / Adapta
Procedure: as §1, §2, §3

[17] = target: T15, CDK1_cyclinB_h (Homo sapiens, UniProt P06493); test: SelectScreen kinase assay; type: biochemical; settings: KM ATP
T15 construct: purchased Life Technologies (Invitrogen) SelectScreen, Z'-LYTE / Adapta
Procedure: as §1, §2, §3

[18] = target: T16, TSSK2_h (Homo sapiens, UniProt Q96PF2); test: SelectScreen kinase assay; type: biochemical; settings: KM ATP
T16 construct: purchased Life Technologies (Invitrogen) SelectScreen, Z'-LYTE / Adapta
T16 sequence (Q96PF2 whole entry): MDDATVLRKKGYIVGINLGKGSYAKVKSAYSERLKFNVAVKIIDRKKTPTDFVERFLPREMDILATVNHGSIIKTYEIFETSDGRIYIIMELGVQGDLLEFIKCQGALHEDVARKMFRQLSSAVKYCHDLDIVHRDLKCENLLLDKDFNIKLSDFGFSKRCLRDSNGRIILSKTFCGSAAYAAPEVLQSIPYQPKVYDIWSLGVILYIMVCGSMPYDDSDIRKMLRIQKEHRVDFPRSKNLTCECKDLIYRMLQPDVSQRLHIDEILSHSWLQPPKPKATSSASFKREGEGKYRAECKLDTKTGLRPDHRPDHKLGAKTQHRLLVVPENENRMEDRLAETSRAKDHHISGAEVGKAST
Procedure: as §1, §2, §3

[19] = target: T17, DYRK4_h (Homo sapiens, UniProt Q9NR20); test: SelectScreen kinase assay; type: biochemical; settings: KM ATP
T17 construct: purchased Life Technologies (Invitrogen) SelectScreen, Z'-LYTE / Adapta
Procedure: as §1, §2, §3

[20] = target: T18, PKC-alpha_h (Homo sapiens, UniProt P17252); test: SelectScreen kinase assay; type: biochemical; settings: KM ATP
T18 construct: purchased Life Technologies (Invitrogen) SelectScreen, Z'-LYTE / Adapta
Procedure: as §1, §2, §3

[21] = target: T19, PKC-betaI_h (Homo sapiens, UniProt P05771); test: SelectScreen kinase assay; type: biochemical; settings: KM ATP
T19 construct: purchased Life Technologies (Invitrogen) SelectScreen, Z'-LYTE / Adapta
T19 sequence (P05771 whole entry): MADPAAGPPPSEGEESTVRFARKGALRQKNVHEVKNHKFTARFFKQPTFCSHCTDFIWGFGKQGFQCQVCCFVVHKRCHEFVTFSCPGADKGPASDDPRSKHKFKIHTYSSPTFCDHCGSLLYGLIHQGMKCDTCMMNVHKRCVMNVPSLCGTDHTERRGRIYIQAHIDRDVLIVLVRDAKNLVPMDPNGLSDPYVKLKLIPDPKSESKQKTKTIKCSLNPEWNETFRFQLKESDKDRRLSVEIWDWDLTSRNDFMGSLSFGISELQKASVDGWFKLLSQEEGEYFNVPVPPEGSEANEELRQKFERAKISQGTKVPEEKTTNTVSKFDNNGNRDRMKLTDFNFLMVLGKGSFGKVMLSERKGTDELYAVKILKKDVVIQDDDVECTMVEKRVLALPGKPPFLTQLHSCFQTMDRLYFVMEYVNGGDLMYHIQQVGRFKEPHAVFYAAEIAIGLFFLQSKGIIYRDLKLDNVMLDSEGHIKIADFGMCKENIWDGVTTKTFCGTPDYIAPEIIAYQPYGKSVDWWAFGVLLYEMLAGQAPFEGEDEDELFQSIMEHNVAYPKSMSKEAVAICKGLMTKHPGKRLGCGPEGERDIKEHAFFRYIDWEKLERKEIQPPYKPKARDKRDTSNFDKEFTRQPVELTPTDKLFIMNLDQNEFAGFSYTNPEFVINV
Procedure: as §1, §2, §3

[22] = target: T20, MAP3K8_h (Homo sapiens, UniProt P41279); test: SelectScreen kinase assay; type: biochemical; settings: 100 µM ATP
T20 construct: purchased Life Technologies (Invitrogen) SelectScreen, Z'-LYTE / Adapta
T20 sequence (P41279 whole entry): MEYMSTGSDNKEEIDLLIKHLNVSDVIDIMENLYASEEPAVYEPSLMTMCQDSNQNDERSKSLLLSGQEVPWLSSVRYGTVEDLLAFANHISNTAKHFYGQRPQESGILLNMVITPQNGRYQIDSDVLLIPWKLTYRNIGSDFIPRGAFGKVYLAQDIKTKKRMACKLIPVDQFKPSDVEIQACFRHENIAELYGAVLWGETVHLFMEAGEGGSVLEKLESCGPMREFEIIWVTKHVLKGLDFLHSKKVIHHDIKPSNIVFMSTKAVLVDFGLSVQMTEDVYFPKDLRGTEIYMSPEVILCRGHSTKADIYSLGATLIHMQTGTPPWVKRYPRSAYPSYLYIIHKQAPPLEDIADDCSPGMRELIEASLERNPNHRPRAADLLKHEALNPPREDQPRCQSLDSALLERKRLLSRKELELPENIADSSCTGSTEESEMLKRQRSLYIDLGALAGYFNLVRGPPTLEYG
Procedure: as §1, §2, §3

[23] = target: T21, SGK_h (Homo sapiens, UniProt O00141); test: SelectScreen kinase assay; type: biochemical; settings: KM ATP
T21 construct: purchased Life Technologies (Invitrogen) SelectScreen, Z'-LYTE / Adapta
Procedure: as §1, §2, §3

[24] = target: T22, PKC-gamma_h (Homo sapiens, UniProt P05129); test: SelectScreen kinase assay; type: biochemical; settings: KM ATP
T22 construct: purchased Life Technologies (Invitrogen) SelectScreen, Z'-LYTE / Adapta
Procedure: as §1, §2, §3

**Q.** What does the source list for `c1cc(CC2CCOCC2)n2nc(Nc3ccc4c(NC5CCOCC5)n[nH]c4c3)nc2c1` [CC-509, [3-(2H-3,4,5,6-tetrahydropyran-4-ylamino)(1H-indazol-6-yl)][5-(2H-3,4,5,6-tetrahydropyran-4-ylmethyl)(2H-1,2,4-triazolo[1,5-a]pyridin-2-yl)]amine]?
**A.** number of kinases inhibited by >80% of 256 kinases [1]: 27; Gini score ([1]; calculated from activity in the kinase panel at 3 μM): 0.53; IC50 ([2]; Homo sapiens, Eosinophil): 110 ± 50 nM; remaining activity at 3 µM ([3]; read-out: % control): 88%; remaining activity at 3 µM ([4]; read-out: % control): 89%; remaining activity at 3 µM ([5]; read-out: % control): 100%; remaining activity at 3 µM ([6]; read-out: % control): 63%; remaining activity at 3 µM ([7]; read-out: % control): 82%; remaining activity at 3 µM ([8]; read-out: % control): 92%; remaining activity at 3 µM ([9]; read-out: % control): 80%; remaining activity at 3 µM ([10]; read-out: % control): 94%; remaining activity at 3 µM ([11]; read-out: % control): 43%; remaining activity at 3 µM ([12]; read-out: % control): 98%; remaining activity at 3 µM ([13]; read-out: % control): 86%; remaining activity at 3 µM ([14]; read-out: % control): 100%; remaining activity at 3 µM ([15]; read-out: % control): 31%; remaining activity at 3 µM ([16]; read-out: % control): 96%; remaining activity at 3 µM ([17]; read-out: % control): 82%; remaining activity at 3 µM ([18]; read-out: % control): 93%; remaining activity at 3 µM ([19]; read-out: % control): 97%; remaining activity at 3 µM ([20]; read-out: % control): 71%; remaining activity at 3 µM ([21]; read-out: % control): 92%; remaining activity at 3 µM ([22]; read-out: % control): 79%; remaining activity at 3 µM ([23]; read-out: % control): 96%; remaining activity at 3 µM ([24]; read-out: % control): 45%

**Q.** Which results are given for `COc1cc(Nc2ncc(F)c(Nc3ccc4c(n3)NC(=O)C(C)(C)O4)n2)cc(OC)c1OC` [R406, reference compound]?
**A.** number of kinases inhibited by >80% of 256 kinases [1]: 75; IC50 [2]: 1410 ± 1730 nM; % control ([3]; 3 µM): 96%; % control ([4]; 3 µM): 92%; % control ([5]; 3 µM): 104%; % control ([6]; 3 µM): 11%; % control ([7]; 3 µM): 99%; % control ([8]; 3 µM): 100%; % control ([9]; 3 µM): 90%; % control ([10]; 3 µM): 92%; % control ([11]; 3 µM): 19%; % control ([12]; 3 µM): 103%; % control ([13]; 3 µM): 100% and 101%; % control ([14]; 3 µM): 64%; % control ([15]; 3 µM): 34%; % control ([16]; 3 µM): 108%; % control ([17]; 3 µM): 68%; % control ([18]; 3 µM): 96%; % control ([19]; 3 µM): 69%; % control ([20]; 3 µM): 42%; % control ([21]; 3 µM): 59%; % control ([22]; 3 µM): 52%; % control ([23]; 3 µM): 94%; % control ([24]; 3 µM): 16%
